The results in this text go back to ChEMBL document CHEMBL2073807, “Effects of glibenclamide on glycylsarcosine transport by the rat peptide transporters PEPT1 and PEPT2” (Br J Pharmacol, 1999).

Assay [1] has as its target T1, Solute carrier family 15 member 2 (Rattus norvegicus, UniProt Q63424).
T1 sequence (Q63424 whole entry): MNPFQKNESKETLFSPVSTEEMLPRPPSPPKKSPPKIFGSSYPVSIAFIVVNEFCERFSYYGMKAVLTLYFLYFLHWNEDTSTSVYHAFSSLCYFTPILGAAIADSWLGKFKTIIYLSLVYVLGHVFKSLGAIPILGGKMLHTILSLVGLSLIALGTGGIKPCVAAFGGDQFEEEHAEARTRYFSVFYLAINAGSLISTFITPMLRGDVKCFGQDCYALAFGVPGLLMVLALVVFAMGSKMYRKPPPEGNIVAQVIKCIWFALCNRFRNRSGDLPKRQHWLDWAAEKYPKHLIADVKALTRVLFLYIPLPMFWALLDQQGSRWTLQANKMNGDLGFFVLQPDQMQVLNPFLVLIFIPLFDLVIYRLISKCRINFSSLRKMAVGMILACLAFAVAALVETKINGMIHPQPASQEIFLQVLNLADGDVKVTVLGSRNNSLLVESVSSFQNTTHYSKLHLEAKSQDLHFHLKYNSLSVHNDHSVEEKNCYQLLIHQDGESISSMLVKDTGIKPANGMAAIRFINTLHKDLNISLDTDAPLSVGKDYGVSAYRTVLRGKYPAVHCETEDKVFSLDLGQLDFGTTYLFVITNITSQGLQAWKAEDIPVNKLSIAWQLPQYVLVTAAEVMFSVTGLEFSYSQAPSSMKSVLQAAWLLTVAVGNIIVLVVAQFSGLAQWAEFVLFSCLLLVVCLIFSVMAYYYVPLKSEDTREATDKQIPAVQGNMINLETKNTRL
Description: TP_TRANSPORTER: inhibition of Gly-Sar uptake in PEPT2-expressing LLC-PK1 cells. Type of assay: functional, cell-based.

Assay [2] deals with T2, Solute carrier family 15 member 1 (Rattus norvegicus, UniProt P51574).
T2 sequence (P51574 whole entry): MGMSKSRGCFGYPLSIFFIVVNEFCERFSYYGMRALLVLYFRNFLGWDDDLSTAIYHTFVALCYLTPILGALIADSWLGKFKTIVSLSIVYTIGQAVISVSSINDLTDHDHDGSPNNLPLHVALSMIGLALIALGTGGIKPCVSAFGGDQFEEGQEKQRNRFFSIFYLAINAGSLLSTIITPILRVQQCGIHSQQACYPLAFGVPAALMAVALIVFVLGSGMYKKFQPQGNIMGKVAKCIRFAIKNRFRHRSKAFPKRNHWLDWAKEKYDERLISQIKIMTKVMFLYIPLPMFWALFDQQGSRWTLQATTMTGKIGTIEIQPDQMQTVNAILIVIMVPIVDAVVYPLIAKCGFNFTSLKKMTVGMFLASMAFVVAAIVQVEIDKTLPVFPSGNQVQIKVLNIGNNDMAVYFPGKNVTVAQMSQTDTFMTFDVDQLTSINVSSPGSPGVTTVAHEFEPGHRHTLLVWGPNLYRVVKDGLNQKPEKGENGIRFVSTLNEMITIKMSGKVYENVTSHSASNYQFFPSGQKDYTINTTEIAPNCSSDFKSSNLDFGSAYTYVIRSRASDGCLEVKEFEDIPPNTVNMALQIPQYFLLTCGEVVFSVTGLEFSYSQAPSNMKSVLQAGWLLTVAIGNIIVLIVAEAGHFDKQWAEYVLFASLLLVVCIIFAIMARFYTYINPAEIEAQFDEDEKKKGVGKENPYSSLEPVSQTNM
As to the kind of experiment: TP_TRANSPORTER: inhibition of Gly-Sar uptake in PEPT1-expressing LLC-PK1 cells. Type of assay: functional, cell-based.

One may read the Ki as the equilibrium dissociation constant of an inhibitor or competing ligand from its target. Lower therefore signals a stronger hold on the target. As for `COc1ccc(Cl)cc1C(=O)NCCc1ccc(S(=O)(=O)NC(=O)NC2CCCCC2)cc1` [GLYBURIDE], the Ki in assay [1] is 7.8 µM; in assay [2], 25 µM.
